Data: PubChem BioAssay (NCI)
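All cell lines were grown in 96-well plates and treated with compound for 48 hours. TGI is the concentration that stops growth completely.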 *1 amine or outer side, *2 acyl side, *3 side chain or, on linkers, in order; H or OH if unused. Where a SMILES comes first, the peptide text is derived from it. Bridges are numbered along the chain shown (N, C = ends). [ ]: non-standard residue; d: D form. The star is where a group is joined. ξ: configuration not given here. X34 = O=C(C(CCCCNO[*:3])N[*:1])[*:2]; Fmoc = O=C(OCC1c2ccccc2-c2ccccc21)*; ξLac(3-iPr) = CC(C)CC(O)C(=O)O; NMeV = CN[CH](C(=O)O)C(C)C; NMeA = CN[CH](C)C(=O)O; βAla = NCCC(=O)O

Legend:
Assay in all cases: growth of human tumour cells (NCI), 48 h
[1] = test system: U251 CNS
[2] = test system: SW-620 colon
[3] = test system: SF-539 CNS
[4] = test system: SF-295 CNS
[5] = test system: NCI-H522 lung
[6] = test system: SNB-75 CNS
[7] = test system: TK-10 renal
[8] = test system: M14 melanoma
[9] = test system: ACHN renal
[10] = test system: MDA-MB-231 breast
[11] = test system: MALME-3M melanoma
[12] = test system: HT29 colon
[13] = test system: CCRF-CEM leukemia
[14] = test system: HCT-15 colon
[15] = test system: RXF 393 renal
[16] = test system: MOLT-4 leukemia
[17] = test system: MDA-MB-435

SMILES | TGI [1] | TGI [2] | TGI [3] | TGI [4] | TGI [5] | TGI [6] | TGI [7] | TGI [8] | TGI [9] | TGI [10] | TGI [11] | TGI [12] | TGI [13] | TGI [14] | TGI [15] | TGI [16] | TGI [17]
CC(=O)c1ccc2c(c1)CC1(C2)Cc2ccc3c(c2C1=O)CCC3 (stereo not given) | > 100 µM | > 100 µM | > 100 µM | > 100 µM | 54.6 µM | 91.3 µM | 64.2 µM | 64.8 µM | > 100 µM | > 100 µM | 57 µM | 31.6 µM | > 100 µM | > 100 µM | 97 µM | > 100 µM | 45.3 µM
C[N+](C)(C)CC(=O)N/N=C(\C(=O)NC1=C(Cl)C(=O)c2ccccc2C1=O)C(C#N)c1nc(-c2ccc([N+](=O)[O-])cc2)cs1 (stereo not given) | 26.4 µM | 31.6 µM | 22.3 µM | 18.9 µM | 19.2 µM | 19.9 µM | 74.6 µM | 8.65 µM | 26 µM | 39.3 µM | 3.97 µM | 33.6 µM | 49.5 µM | 18.8 µM | 30.2 µM | 53.7 µM | 3.17 µM
CCC(C)C1NC(=O)C2CCCN2C(=O)C(CC(C)C)OC(=O)CCNC(=O)C(C)N(C)C(=O)C(C(C)C)N(C)C1=O (stereo not given) (cyclo([ξLac(3-iPr)]PI[NMeV][NMeA][βAla]); configuration not given here) | > 100 µM | > 100 µM | > 80.3 µM | 8.05 µM | 60.2 µM | > 86.8 µM | > 100 µM | 6.49 µM | > 83.4 µM | > 100 µM | 45.2 µM | 43.7 µM | > 17.9 µM | > 100 µM | 98 µM | 21 µM | 13.5 µM
O=c1[nH]c(=O)n(C2CC(O)C(CO)O2)c2nc3ccc4cc5ccccc5cc4c3nc12 (stereo not given) | > 100 µM | > 100 µM | > 100 µM | > 100 µM | > 100 µM | > 100 µM | > 100 µM | > 100 µM | > 100 µM | > 100 µM | > 100 µM | > 100 µM | > 100 µM | > 100 µM | > 100 µM | > 100 µM | > 100 µM
C=C1C(=O)OC2C3C(=C)[C@@H](OC(C)=O)CC3C(C)=CC(OC(=O)C(C)(OC(C)=O)C(C)OC(C)=O)[C@@H]12 (stereo not given in full) | 30.8 µM | 21.9 µM | 33.5 µM | > 100 µM | 11.4 µM | 37.1 µM | 27.9 µM | 27.8 µM | 27 µM | 32.7 µM | 26.5 µM | 27.5 µM | 12.3 µM | 25.7 µM | 31.7 µM | 52.2 µM | 31.2 µM
O=S1(=O)OCCOS(=O)(=O)C1Cc1cccc2ccccc12 | 40.7 µM | > 100 µM | 39.9 µM | > 100 µM | 47.8 µM | > 100 µM | > 100 µM | 54.9 µM | 99.6 µM | 46.6 µM | 31.2 µM | 71.4 µM | 40.5 µM | 87.1 µM | 12 µM | 65.9 µM | 32 µM
O=C1c2c(ccc3c2CCC3)CC12Cc1ccccc1C2 | > 100 µM | 93.7 µM | 74.8 µM | > 100 µM | 73.7 µM | 91.1 µM | > 100 µM | > 100 µM | > 100 µM | 71.3 µM | 54 µM | 47.1 µM | 46.1 µM | > 100 µM | 40.4 µM | 30.1 µM | > 100 µM
CCN(CC)c1ccc(/C=C/C(=O)c2cc(C(C)(C)C)c(O)c(C(C)(C)C)c2)cc1 | 11.9 µM | > 100 µM | 10.5 µM | 7.98 µM | 10.2 µM | > 100 µM | 97.6 µM | > 93.9 µM | > 100 µM | 48.1 µM | > 100 µM | 9.52 µM | > 66 µM | > 100 µM | 39.1 µM | > 100 µM | 13.3 µM
COC(=O)C1=C(C)NC(C)=C(C(=O)OC)C1c1ccc(N=O)cc1 | 32.2 µM | 12.9 µM | 32 µM | > 61.3 µM | 6.61 µM | 26.1 µM | 29.2 µM | 23.3 µM | 26.7 µM | 25.2 µM | 24.4 µM | 40.8 µM | > 100 µM | 23.9 µM | 23.5 µM | > 100 µM | 32.6 µM
NC(=O)CNC(=O)C1CCCN1C(=O)C1CCCCNOC(=O)CCC(NC(=O)OCC2c3ccccc3-c3ccccc32)C(=O)NC(Cc2c[nH]c3ccccc23)C(=O)N1 (stereo not given) (Fmoc-EW[X34]PG-NH2; ester 1-3; configuration not given here) | > 100 µM | > 100 µM | > 100 µM | > 100 µM | > 100 µM | > 100 µM | > 100 µM | > 100 µM | > 100 µM | > 100 µM | > 100 µM | > 100 µM | > 100 µM | > 100 µM | > 100 µM | > 100 µM | > 100 µM
